Consider three molecules from patent US11685716B2, “Plant growth inhibiting agent, and plant growth inhibiting method using same” (NATIONAL UNIVERSITY CORPORATION KUMAMOTO UNIVERSITY, priority 2017, dated 2023).

The structures appear in SMILES notation. *1 amine or outer side, *2 acyl side, *3 side chain or, on linkers, in order; H or OH if unused. Where a SMILES comes first, the peptide text is derived from it. Bridges are numbered along the chain shown (N, C = ends). Roman numbers before positions name the chains, in order. [ ]: non-standard residue; d: D form. Actinocin(9to1) = Cc1c2oc3c(C)ccc(C(=O)[*:1])c3nc-2c(C(=O)[*:2])c(N)c1=O; NMeV = CN[C@H](C(=O)O)C(C)C; Sar = CNCC(=O)O

For data set [1], the system named is HeLa cell. The experiment in a line: Cytotoxicity on human cultured cancer cells, relative survival rate (Evaluation 7). In kind it is cell-based. Conditions: control. The procedure:
HeLa cells were cultured in a 96-well plate using Dulbecco's Modified Eagle's Medium (DHEM) under the culture conditions of 5% carbon dioxide and at 37° C. The compound (8b) (final concentration 50 μM), the compound (8f) (final concentration 50 μM), DMSO (final concentration 0.25%), Actinomycin D (final concentration 5 μg/ml) or Nocodazole (final concentration 100 ng/ml) was added 0 (48-hr compound treated sample), 12 (36-hr compound treated sample), 24 (24-hr compound treated sample), 36 (12-hr compound treated sample), and 48 (0-hr compound treated sample) hours after the culture was started. All of the samples were measured for living cell counts 48 hours after the culture was started with a cell counting kit (DOJINDO LABORATORIES), and a measured value of each-time compound treated-sample was divided by the measured value of 0-time compound treated sample to calculate a relative survival rate.
In addition, a transcription inhibitor Actinomycin D and a tubulin polymerization inhibitor Nocodazole were used as controls of the compounds which had cytotoxicity (induces apoptosis). DMSO is a solvent in which the compound (8b) or the compound (8f) was dissolved, and used as a control to observe the affect of the solvent on the cells.

In a further data set the test system is thale cress. The experiment in a line: Activities on plants: growth of thale cress on agar medium (Evaluation 1, 6). In kind it is in vivo, thale cress (Col-0, wild-type strain). To be noted: thale cress Col-0, agar medium, 7 days, scanned images. How it is done: The test compound (compound (6a)) and DMSO for a control experiment, were added at this stage and blended. Fifty ml each of the medium was dispensed in sterile No. 2 square petri dishes (Eiken Chemical Co., Ltd.) to prepare agar medium. As a plant material, Col-0, which is a wild-type strain of […] used. Seeds, after their surfaces were sterilized, were planted on the agar medium, and vernalized at 4° C. for 16 hours. Growth of the plant was carried out in a growth chamber (SANYO MLR-351) under the conditions of an illuminance of 3 at 23° C. with constant light. The agar medium was allowed to stand upright in the chamber to grow the plant for 7 days. Lids of the petri dishes used for the test were opened, the test results were recorded with a scanner, and with the scanned images, […]

Another data set deals with E. coli (DH5a strain). Description: E. coli growth inhibiting activity (Evaluation 5). In kind it is cell-based. Conditions: final concentration 10 μM or 100 μM, up to 6 hours. The procedure: The compound (6a) or the compound (7) (final concentration 10 μM or 100 μM), 50% ethanol (final concentration 0.05% or 0.5%), or ampicillin (final concentration 50 μg/ml) was added to LB medium in which E. coli (DH5a strain) was added to carry out shaking culture at 37° C. One, 2, 4, and 6 hours after the culture was started, turbidity (OD600) of the culture medium was measured with a spectrophotometer to analyze the affect of the compound (6a) or the compound (7), 50% ethanol, ampicillin on the growth of E. coli cells.
In addition, ampicillin was used as a control of the compound which inhibits the growth.

In data set [2] the test system is Saccharomyces cerevisiae (BY4741 strain). Description: Growth inhibiting activity on Saccharomyces cerevisiae (Evaluation 4). It counts as cell-based. Conditions: final concentration 10 μM or 100 μM, up to 24 hours. The procedure:
The compound (6a) or the compound (7) (final concentration 10 μM or 100 μM), or 50% ethanol (final concentration 0.05% or 0.5%) was added to YPD medium in which Saccharomyces cerevisiae (BY4741 strain) was inoculated to carry out shaking culture at 30° C. Four, 8, 16, and 24 hours after the culture was started, turbidity (OD600) of the culture medium was measured with a spectrophotometer to analyze the affect of the compound (6a) or the compound (7), or 50% ethanol on the growth of the […] cells.

Data set [3] has as its system Schizosaccharomyces pombe (wild-type strain 972). Description: Growth inhibiting activity on Schizosaccharomyces pombe (Evaluation 3). It counts as cell-based. Conditions: final concentration 100 μM, up to 30 hours. How it is done:
The compound (6a) or the compound (7) (final concentration 100 μM) or 50% ethanol (final concentration 0.5%) was added to YE medium in which Schizosaccharomyces pombe (wild-type strain 972) was inoculated to carry out shaking culture at 30° C. Six, 12, 18, 24, and 30 hours after the culture was started, turbidity (OD600) of the culture medium was measured with a spectrophotometer to analyze the affect of the compound (6a) or the compound (7), or 50% ethanol on the growth of the Schizosaccharomyces pombe cells.

Data set [4] deals with HeLa cell. The experiment in a line: Cell proliferation inhibiting activity on human cultured cancer cells (Evaluation 2). It counts as cell-based. To be noted: final concentration 200 μM, 32 hours. How it is done: Every 8 hours after the culture was started, living cell counts were measured with a cell counting kit (DOJINDO LABORATORIES). In addition, staurosporine was used as a control of the compound which inhibits the cell proliferation.

Consider `Cc1c2oc3c(C)ccc(C(=O)N[C@@H]4C(=O)N[C@H](C(C)C)C(=O)N5CCC[C@H]5C(=O)N(C)CC(=O)N(C)[C@@H](C(C)C)C(=O)O[C@@H]4C)c3nc-2c(C(=O)N[C@@H]2C(=O)N[C@H](C(C)C)C(=O)N3CCC[C@H]3C(=O)N(C)CC(=O)N(C)[C@@H](C(C)C)C(=O)O[C@@H]2C)c(N)c1=O` [Actinomycin D] (I: T[dV]P[Sar][NMeV] / II: T[dV]P[Sar][NMeV]; ester I:1-I:C, II:1-II:C; linker I:N-II:N via Actinocin(9to1)), for which, in the data set on HeLa cell [1] (final concentration 5 μg/ml), the “viability of HeLa cells (relative survival rate)” value is “induced apoptosis”.

Consider `COn1cccc1C(N)=O` [Compound 7, 1-Methoxy-1H-pyrrole-2-carboxamide], for which the “twisting of root epidermal cells / abnormality in direction of root growth” value in the data set on thale cress is “epidermal cells of the roots were twisted leftward and abnormality in a direction of the root growth was observed”. In addition, in the data set with E. coli (DH5a strain), the “E. coli growth (OD600)” value is given as “neither the compound (6a) nor the compound (7) inhibits the E. coli growth”. The “growth of Saccharomyces cerevisiae (OD600)” value in data set [2] is “neither the compound (6a) nor the compound (7) inhibits the growth”. The “growth of Schizosaccharomyces pombe (OD600)” value in data set [3] is “neither the compound (6a) nor the compound (7) inhibits the growth”. Further, in the data set with HeLa cell [4], the “effect on growth rate of HeLa cells (living cell counts)” value is given as “no affect at all”.

Regarding `COC(=O)Nc1nc2ccc(C(=O)c3cccs3)cc2[nH]1` [Nocodazole], in the data set with HeLa cell [1] (final concentration 100 ng/ml), the “viability of HeLa cells (relative survival rate)” value is on record as “induced apoptosis”.
